From PubChem BioAssay AID256 (DTP/NCI, 2004)
Inconclusive results and toxic doses are left out. How the source made its calls: active means survival T/C of 150% or more; inactive means T/C below 125% in these data. Positions of bridges follow the written chain, without caps; N, C: chain ends. Residues, ends and D or L forms follow the SMILES beside them. Chains are numbered I, II in the order given. *: point of attachment. Bz = O=C(c1ccccc1)*

Test system: CD2F1 mice, L1210 leukemia ip, survival T/C
Assay: NCI In Vivo Anticancer Drug Screen. Data for tumor model L1210 Leukemia (intraperitoneal) in CD2F1 (CDF1) mice
Settings: endpoint: mean survival time, higher = longer survival
Summary of the method: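 Implant tumor; dose compound or vehicle; measure endpoint in both groups; report treated divided by control.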

[1] = dose: 100.0 mg/kg/injection, schedule: Q04DX002 (ip), vehicle: saline with Tween-80
[2] = dose: 200.0 mg/kg/injection, schedule: Q04DX002 (ip), vehicle: saline with Tween-80
[3] = dose: 400.0 mg/kg/injection, schedule: Q04DX002 (ip), vehicle: saline with Tween-80
[4] = dose: 100.0 mg/kg/injection, schedule: Q01DX009 (ip), vehicle: saline with Tween-80
[5] = dose: 100.0 mg/kg/injection, schedule: Q04DX003 (ip), vehicle: saline with Tween-80
[6] = dose: 200.0 mg/kg/injection, schedule: Q01DX009 (ip), vehicle: saline with Tween-80
[7] = dose: 200.0 mg/kg/injection, schedule: Q04DX003 (ip), vehicle: saline with Tween-80
[8] = dose: 400.0 mg/kg/injection, schedule: Q01DX009 (ip), vehicle: saline with Tween-80
[9] = dose: 400.0 mg/kg/injection, schedule: Q04DX003 (ip), vehicle: saline with Tween-80
[10] = dose: 50.0 mg/kg/injection, schedule: Q01DX009 (ip), vehicle: saline with Tween-80
[11] = dose: 100.0 mg/kg/injection, schedule: Q01DX001 (ip), vehicle: Klucel (hydroxypropylcellulose) (HPC)
[12] = dose: 200.0 mg/kg/injection, schedule: Q01DX001 (ip), vehicle: Klucel (hydroxypropylcellulose) (HPC)
[13] = dose: 400.0 mg/kg/injection, schedule: Q01DX001 (ip), vehicle: Klucel (hydroxypropylcellulose) (HPC)
[14] = dose: 100.0 mg/kg/injection, schedule: Q01DX001 (ip), vehicle: saline with Tween-80
[15] = dose: 200.0 mg/kg/injection, schedule: Q01DX001 (ip), vehicle: saline with Tween-80
[16] = dose: 400.0 mg/kg/injection, schedule: Q01DX001 (ip), vehicle: saline with Tween-80

Measured: T/C

COc1c(C)c2c(c(OC(C)=O)c1CC(=O)C(C)(O)CCC(=O)O)C(=O)OC2 (stereo not drawn)
inactive: [1] 103 % of control | [2] 96 % of control | [3] 112 % of control

O=C1CCCCCCCCCCC1C(O)(C(F)(F)F)C(F)(F)F (stereo not drawn)
inactive: [4] 96 % of control | [5] 91 % of control | [6] 101 % of control | [7] 95 % of control | [8] 96 % of control | [9] 91 % of control

CCCCNC(=S)Nc1ccccc1
inactive: [10] 100 % of control | [4] 105 % of control | [6] 86 % of control

C[n+]1nc(-c2ccccc2)oc1-c1ccccc1
inactive: dose: 25.0 mg/kg/injection, schedule: Q04DX002 (ip), vehicle: saline with Tween-80 100 % of control | dose: 50.0 mg/kg/injection, schedule: Q04DX002 (ip), vehicle: saline with Tween-80 100 % of control | [1] 108 % of control | [2] 106 % of control

CCC(C)OC(=O)Nc1cccc(OC(=O)N(C)C)c1 (stereo not drawn)
inactive: [5] 97 % of control | [7] 97 % of control | [9] 100 % of control

CCCCCCCCCCCCCCCCN(C)c1ccc(C(=O)OC)cc1[N+](=O)[O-]
inactive: dose: 100.0 mg/kg/injection, schedule: Q01DX009 (ip), vehicle: Klucel (hydroxypropylcellulose) (HPC) 97 % of control | dose: 100.0 mg/kg/injection, schedule: Q04DX003 (ip), vehicle: saline 98 % of control | dose: 200.0 mg/kg/injection, schedule: Q01DX009 (ip), vehicle: Klucel (hydroxypropylcellulose) (HPC) 101 % of control | dose: 200.0 mg/kg/injection, schedule: Q04DX003 (ip), vehicle: saline 91 % of control | dose: 400.0 mg/kg/injection, schedule: Q01DX009 (ip), vehicle: Klucel (hydroxypropylcellulose) (HPC) 97 % of control | dose: 400.0 mg/kg/injection, schedule: Q04DX003 (ip), vehicle: saline 95 % of control

NNC(=O)c1cc(Cl)cc(C(=O)NN)n1
inactive: [10] 97 % of control

CN(C)c1ccc(C=C(c2ccc(N)cc2)c2ccc(N)cc2)cc1
inactive: [4] 91 % of control | [6] 92 % of control | [8] 94 % of control

c1ccc2c(c1)c1ccccc1c1nc3c(nc21)CCCC3
inactive: [5] 102 % of control | [7] 96 % of control | [9] 96 % of control

CCCCCCCCC(=O)N(C)OC
inactive: [10] 102 % of control | [4] 104 % of control

COc1cc2c(cc1O)CCCCC2
inactive: dose: 50.0 mg/kg/injection, schedule: Q01DX009 (ip), vehicle: other 100 % of control | dose: 100.0 mg/kg/injection, schedule: Q01DX009 (ip), vehicle: other 103 % of control | dose: 200.0 mg/kg/injection, schedule: Q01DX009 (ip), vehicle: other 92 % of control

CCCCCCCCCCCCCCCCCC[n+]1ccc(C(=O)c2ccccc2)cc1
inactive: dose: 9.38 mg/kg/injection, schedule: Q01DX001 (ip), vehicle: other 109 % of control | dose: 18.75 mg/kg/injection, schedule: Q01DX001 (ip), vehicle: other 110 % of control

O=C(NCCCl)C(=O)NCCCl
inactive: [1] 100 % of control | [2] 100 % of control | [3] 100 % of control

Cc1ccc(S(=O)(=O)NN=C2CCC3(CC2)c2ccccc2-c2ccccc23)cc1
inactive: [11] 96 % of control | [12] 96 % of control | [13] 98 % of control

CCCC/C=C/COCC
inactive: [10] 97 % of control | [4] 94 % of control | [6] 97 % of control

CCOC(=O)/C=C/c1ccc(O)cc1
inactive: dose: 100.0 mg/kg/injection, schedule: Q04DX003 (ip), vehicle: Klucel (hydroxypropylcellulose) (HPC) 102 % of control | dose: 200.0 mg/kg/injection, schedule: Q04DX003 (ip), vehicle: Klucel (hydroxypropylcellulose) (HPC) 98 % of control | dose: 400.0 mg/kg/injection, schedule: Q04DX003 (ip), vehicle: Klucel (hydroxypropylcellulose) (HPC) 98 % of control

O=C(NCCCl)NC1C(O)C(O)C(O)C(O)C1O (stereo not drawn)
inactive: [14] 104 % of control | [15] 98 % of control | [16] 98 % of control

O=[N+]([O-])c1ccc2[nH]ncc2c1
inactive: [14] 103 % of control | [15] 92 % of control | [16] 100 % of control

COC(=O)C(CSSCC(NC(=O)CNC(=O)c1ccccc1)C(=O)OC)NC(=O)CNC(=O)c1ccccc1 (stereo not drawn) (I: Bz-Gly-Cys-OMe / II: Bz-Gly-Cys-OMe; disulfide I:2-II:2; configuration not given here)
inactive: [14] 108 % of control | [4] 87 % of control | [15] 102 % of control | [6] 87 % of control | [16] 97 % of control

CN(C)C1c2cc(Cl)ccc2-c2ccc(Cl)cc21
inactive: dose: 50.0 mg/kg/injection, schedule: Q01DX001 (ip), vehicle: carboxymethylcellulose (CMC) 101 % of control | dose: 100.0 mg/kg/injection, schedule: Q01DX001 (ip), vehicle: carboxymethylcellulose (CMC) 95 % of control | dose: 200.0 mg/kg/injection, schedule: Q01DX001 (ip), vehicle: carboxymethylcellulose (CMC) 101 % of control | dose: 400.0 mg/kg/injection, schedule: Q01DX001 (ip), vehicle: carboxymethylcellulose (CMC) 98 % of control

CCOC(=O)C(SC)(SC)C(=O)OCC
inactive: [11] 106 % of control | [12] 109 % of control | [13] 103 % of control

Cc1cc(NCCN(C(C)C)C(C)C)nc(/N=C(\N)Nc2ccc(Cl)c(C(F)(F)F)c2)n1
inactive: dose: 1.25 mg/kg/injection, schedule: Q01DX009 (ip), vehicle: Klucel (hydroxypropylcellulose) (HPC) 98 % of control | dose: 2.5 mg/kg/injection, schedule: Q01DX009 (ip), vehicle: Klucel (hydroxypropylcellulose) (HPC) 103 % of control | dose: 5.0 mg/kg/injection, schedule: Q01DX009 (ip), vehicle: Klucel (hydroxypropylcellulose) (HPC) 105 % of control | dose: 10.0 mg/kg/injection, schedule: Q01DX009 (ip), vehicle: Klucel (hydroxypropylcellulose) (HPC) 101 % of control | dose: 20.0 mg/kg/injection, schedule: Q01DX009 (ip), vehicle: Klucel (hydroxypropylcellulose) (HPC) 100 % of control | dose: 40.0 mg/kg/injection, schedule: Q01DX009 (ip), vehicle: Klucel (hydroxypropylcellulose) (HPC) 88 % of control

CN(N)C1CCCCC1
inactive: dose: 75.0 mg/kg/injection, schedule: Q01DX001 (ip), vehicle: saline 100 % of control | dose: 150.0 mg/kg/injection, schedule: Q01DX001 (ip), vehicle: saline 100 % of control

CC1(C)SC(C(NC(=O)Cc2ccccc2)C(=O)O)NC1C(=O)O (stereo not drawn)
inactive: [5] 101 % of control | [7] 103 % of control | [9] 95 % of control

O=S(=O)(F)c1ccc(-c2cc(Cl)c3cc(F)ccc3n2)cc1
inactive: [14] 98 % of control | [15] 98 % of control | [16] 94 % of control

CN(C)NC(=O)/C=C\C(=O)O
inactive: dose: 100.0 mg/kg/injection, schedule: Q01DX009 (ip), vehicle: saline 101 % of control | dose: 200.0 mg/kg/injection, schedule: Q01DX009 (ip), vehicle: saline 101 % of control

O=Cc1cc(Cl)cc(Cl)c1O
inactive: [5] 96 % of control | [7] 98 % of control

CCc1ccc(C(=O)N/N=C(\C)[C@]2(O)Cc3c(O)c4c(c(O)c3[C@@H](OC3CC(N)C(O)C(C)O3)C2)C(=O)c2c(OC)cccc2C4=O)cc1 (stereo partly drawn)
inactive: dose: 0.25 mg/kg/injection, schedule: Q01DX009 (ip), vehicle: water 100 % of control | dose: 0.5 mg/kg/injection, schedule: Q01DX009 (ip), vehicle: water 110 % of control | dose: 1.0 mg/kg/injection, schedule: Q01DX009 (ip), vehicle: water 112 % of control | dose: 8.0 mg/kg/injection, schedule: Q01DX009 (ip), vehicle: water 91 % of control

COc1cc(N=C(N)N=C(N)N)c2ncccc2c1
inactive: dose: 100.0 mg/kg/injection, schedule: Q04DX002 (ip), vehicle: saline 90 % of control | dose: 200.0 mg/kg/injection, schedule: Q04DX002 (ip), vehicle: saline 90 % of control

CN(C)c1ccc(/C=C/c2ccncc2)cc1
inactive: [4] 95 % of control | [6] 96 % of control | [8] 89 % of control

CN(Cc1cnc2nc(N)nc(N)c2n1)c1ccc(C(=O)NC(CCC(=O)O)C(=O)O)cc1Br (stereo not drawn)
inactive: dose: 6.25 mg/kg/injection, schedule: Q01DX Z (ip), vehicle: saline 104 % of control

CCCCCCC(C/C=C\CCCCCCCC(=O)OC)OC(C)=O (stereo not drawn)
inactive: [5] 101 % of control | [7] 101 % of control | [9] 97 % of control

Cc1oc([N+](=O)[O-])cc1C(=O)O
inactive: [5] 102 % of control | [7] 102 % of control | [9] 115 % of control

CCCCC#CC1CCCC1 (tested in a mixture with another compound)
inactive: [10] 103 % of control | [4] 100 % of control | [6] 100 % of control

COC1OC2COc3ccccc3OC2C2N=C(N)SC12 (stereo not drawn)
inactive: [14] 100 % of control | [15] 97 % of control
